The test system of data set [1] is tail kinking and body contortion. The data set is described as follows: Observation of side-effects after i.p. injection in rats. It counts as in vivo, rat. The following applies: 20 mg/kg i.p. The source says: Referring now to FIG. 24. Biodistribution and side-effects of TAT-CBD3. […] Oxygenated blood was collected from a cardiac puncture. […] The 95% confidence limits are also indicated.

The subject of data set [2] is anxiety-associated behavior. Put plainly: Light-Dark Box test (LDBT). It counts as in vivo, C57BL6 mice. To be noted: for Light-Dark Box: Dark box latency to exit / Light-Dark Box: Light box entries: C57BL6 mice, 1 h after injection, 5 min test. Here is the method:
The light-dark box test and the elevated plus maze were used as measures of anxiety-associated behaviors. The tail suspension test was performed to evaluate despair- and depression-associated behavior. Anxiety-behavior testing Anxiety occurs when there is conflict between risk and reward. The Light-Dark Box test (LDBT) and the elevated plus maze (EPM) are accepted tests of anxiety-associated behavior that assess the conflict mice have against hiding in enclosed dark areas (i.e., dark box or closed arm) and their tendency to explore novel environments (i.e., white box or open arm). Lalonde, R. & Strazielle, C. […] J. Neurosci. Methods. 171, 48-52 (2008). These tests are also sensitive to anxiolytic drug treatments. Light-Dark Box test as a measure of anxiety-associated behavior. For the light-dark box test (LDBT), there were two adjoined light and dark compartments boxes with a 7 cm square opening to allow mice to move between them. The black box was covered (20 cm×40 cm×30 cm height) and the white box (20 cm×40 cm×30 cm height) was open and illuminated (40 W). Each mouse was placed into the white compartment and the white compartment was video recorded for later analyses using ANY-maze software (version 4.75, Stoelting, Wood Dale, Ill.) which is a video tracking system designed to automate testing in behavioral experiments. The main parameters were duration of time spent in the light box; the latency to enter the dark box; and the number of transitions between the light and dark box.

The subject of data set [3] is CRMP-2 binding to L1 and Ct-dis regions of CaV2.2. The data set is described as follows: In vitro binding of L1-GST and Ct-dis-GST fusion proteins to CRMP-2. Details: species or system rat. The following applies: peptides 10 μM. An excerpt:
In Vitro Protein Binding Assays. Using Vector NTI (v. 11; Invitrogen) software, primers were designed to amplify regions corresponding to the first cytoslic loop (L1; amino acids 356 to 483) and the distal end of the C-terminus (Ct-dis; amino acids 2133 to 2348) of rat CaV2.2 cDNA from P3 rat brain cDNA. The primers harbored restriction sites (Bam HI or Bgl II (5′) and Eco RI or Mfe I (3′)) to facilitate cloning into […]. In addition to the GST-tag, this vector contains the Glu tag, a sequence of six amino acids (EYMPME). Correctly-amplified PCR products and parent pGex-3x-Glu vector were digested with the indicated restriction enzymes, and then extracted following electrophoresis on an agarose gel. The extracted DNAs were quantified (Nanodrop 1000, Thermo Scientific), and ligations were performed using 6:1 and 3:1 insert to vector molar ratios. […]
Monoclonal Glu antibody-saturated Protein G beads (GE Healthcare) carrying various CaV2.2 cytoplasmic loop constructs were incubated with rat brain synaptosome protein in the presence of TAT control or TAT CBD3 peptides (10 μM) in a total reaction volume of 400 μl. […] The samples were then washed three times with a 1000-fold excess of binding buffer, and the proteins were eluted in 40 μl of SDS gel buffer and boiled for 5 min, after which 20 μl of each assay was run on SDS-PAGE and analyzed by immunoblotting with CRMP-2.

The test system of data set [4] is formalin-induced nocifensive behavior. The data set is described as follows: Formalin test. It counts as in vivo, rat. To be noted: 30 μM intraplantar, 30 min before formalin. Here is the method:
Referring now to FIG. 16. TAT-CBD3 reduces acute, inflammatory and neuropathic pain. (FIG. 16A) Time course of number of flinches following subcutaneous (dorsal surface of paw) injection of formalin (2.5%; 50 μl saline) in animals pretreated with peptides (3-100 μM; 20 μl dorsal surface of paw) 30 min before formalin (n=4-10). (FIG. 16B) The effect of peptides on number of flinches on formalin-induced phase 1 (0-10 min) and phase 2 (15-60 min). *, p<0.05 versus formalin-injected animals. (FIG. 16C) Formalin induces paw edema. Paw thickness was measured 1 h after injection of saline, formalin, and formalin+peptides (100 μM). *, p<0.05 versus saline-injected animals. (FIG. 16D) Pretreatment with TAT-CBD3 attenuates capsaicin-evoked nocifensive behavior. Vehicle (0.3% DMSO) or peptides (concentrations as indicated) in saline (40 μL) was instilled corneally and nocifensive behavior noted. […]
Behavioral analyses. […] For the eye-wipe test, vehicle, TAT control or TAT CBD3 peptides (30 μM, 40 μl) were pipetted directly into the right eye and the resulting nocifensive behavior was measured. […] This nocifensive behavior was recorded for five minutes and followed by capsaicin (3 μM; 40 μl saline) application into the pretreated eye. […]

“Also recorded” adds a separate entry of the source. Residues, ends and D or L forms follow the SMILES beside them.

For the molecule `CC(C)C[C@H](NC(=O)CNC(=O)[C@H](CCCNC(=N)N)NC(=O)[C@@H]1CCCN1C(=O)[C@@H](NC(=O)CNC(=O)[C@H](CCCNC(=N)N)NC(=O)[C@H](CC(C)C)NC(=O)[C@H](CCC(=O)O)NC(=O)[C@H](C)NC(=O)[C@H](CC(C)C)NC(=O)[C@H](CCCNC(=N)N)NC(=O)[C@H](CO)NC(=O)[C@H](CCCNC(=N)N)NC(=O)[C@H](C)NC(=O)[C@H](CCCNC(=N)N)NC(=O)[C@H](CCCNC(=N)N)NC(=O)[C@H](CCCNC(=N)N)NC(=O)[C@H](CCC(N)=O)NC(=O)[C@H](CCCNC(=N)N)NC(=O)[C@H](CCCNC(=N)N)NC(=O)[C@H](CCCCN)NC(=O)[C@H](CCCCN)NC(=O)[C@H](CCCNC(=N)N)NC(=O)CNC(=O)[C@@H](N)Cc1ccc(O)cc1)C(C)C)C(=O)O` [TAT-CBD3] (H-YGRKKRRQRRRARSRLAELRGVPRGL-OH; N-terminus and C-terminus assumed), in data set [1], the “duration of contortion and tail kinking” value was “dissipated fifteen seconds following their first appearance”; the “onset of contortion and tail kinking after injection” value is “about 15 seconds”; the side-effects observed result was “whole-body lordosis-like contortion (black arrow) and tail kinking; also recorded: Transient contortions were observed”. In data set [1] (60 min observation), the “number of episodes of contortion and tail kinking” value was “Only a single episode of contortion and tail kinking movement”. The “LDBT number of transitions between the light and dark box” value in data set [2] (1 mg/kg, compared to TAT-Scramble) is “increased”. Besides, in data set [2] (0.1 mg/kg i.p.), the “Light-Dark Box: Dark box latency to exit” value was determined as 66.0 ± 17.3 s and the “Light-Dark Box: Light box entries” value was determined as 10.6 ± 1.2. Besides, in data set [2] (1 mg/kg i.p.), the “Light-Dark Box: Dark box latency to exit” value stood at 36.9 ± 5.8 s and the “Light-Dark Box: Light box entries” value worked out at 13.5 ± 1.1. Also, in data set [2] (10 mg/kg i.p.), the “Light-Dark Box: Dark box latency to exit” value came out at 49.5 ± 9.6 s and the “Light-Dark Box: Light box entries” value is listed as 11.5 ± 1.2.

Regarding ARSRLAELRGVPRGL (CBD3), in data set [3], the “interaction between CRMP-2 and L1 or Ct-dis regions of CaV2.2” value is reported as “disrupted the interaction”. Further, the “formalin-induced flinching, phase 1 and phase 2” value in data set [4] is on record as “displayed blunted nociceptive behaviors in both phases”.
